Experimental data taken from patent US20200016136A1 (VIIV HEALTHCARE UK (NO. 5) LIMITED, priority 2017, published 2020).

Test system: NL-RLuc virus (recombinant NL4-3 HIV with Renilla Luciferase gene)
Assay: Inhibition of HIV replication (NL-RLuc virus in MT-2 cells, luciferase readout)
Format: cell-based, Human immunodeficiency virus (HIV)
Details: MT2, 120 h
In short: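 EC50 derived via median effect equation from at least 2 experiments, using luciferase expression as virus-growth readout. Replication-competent NL-RLuc reporter virus (nef partly replaced by Renilla luciferase) infected MT-2 cells with serial compound dilutions; 5-day incubation in RPMI 1640 plus 10% FBS.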

Row | SMILES | EC50
1 | Cc1nnc(-c2cc(N3CCc4cc(-c5c(C)nc(C)c([C@H](OC(C)(C)C)C(=O)O)c5N5CCC(C)(C)CC5)ccc4C3)ncn2)o1 [Example 131, (S)-2-(tert-Butoxy)-2-(4-(4,4-dimethylpiperidin-1-yl)-2,6-dimethyl-5-(2-(6-(5-methyl-1,3,4-oxadiazol-2-yl)pyrimidin-4-yl)-1,2,3,4-tetrahydroisoquinolin-6-yl)pyridin-3-yl)acetic Acid] | 4 nM
2 | CC1(C)CCN(c2c(-c3ccc4c(c3)CCN(c3ncnc5c3oc3ncccc35)C4)c(CO)nc(Cl)c2[C@H](OC(C)(C)C)C(=O)O)CC1 [Example 115, (S)-2-(tert-Butoxy)-2-(2-chloro-4-(4,4-dimethylpiperidin-1-yl)-6-(hydroxymethyl)-5-(2-(pyrido[3′,2′:4,5]furo[3,2-d]pyrimidin-4-yl)-1,2,3,4-tetrahydroisoquinolin-6-yl)pyridin-3-yl)acetic Acid] | 1 nM
3 | Cc1nc(C)c([C@H](OC(C)(C)C)C(=O)O)c(N2CCC(C)(C)CC2)c1-c1ccc2c(c1)CCN(c1nccc(N3CCCC3)n1)C2 [Example 21, (2S)-2-(tert-Butoxy)-2-[4-(4,4-dimethylpiperidin-1-yl)-2,6-dimethyl-5-{2-[4-(pyrrolidin-1-yl)pyrimidin-2-yl]-1,2,3,4-tetrahydroisoquinolin-6-yl}pyridin-3-yl]acetic Acid] | 2 nM
4 | Cc1cccc(Cl)c1CN1CCc2cc(-c3cnc(Cl)c([C@H](OC(C)(C)C)C(=O)O)c3N3CCC(C)(C)CC3)ccc2C1 [Example 102, (S)-2-(tert-Butoxy)-2-(2-chloro-5-(2-(2-chloro-6-methylbenzyl)-1,2,3,4-tetrahydroisoquinolin-6-yl)-4-(4,4-dimethylpiperidin-1-yl)pyridin-3-yl)acetic Acid] | 8 nM
5 | Cc1nc(C)c([C@H](OC(C)(C)C)C(=O)O)c(N2CCC(C)(C)CC2)c1-c1ccc2c(c1)CCN(c1ccnc(N3CCCCC3)n1)C2 [Example 22, (2S)-2-(tert-Butoxy)-2-[4-(4,4-dimethylpiperidin-1-yl)-2,6-dimethyl-5-{2-[2-(piperidin-1-yl)pyrimidin-4-yl]-1,2,3,4-tetrahydroisoquinolin-6-yl}pyridin-3-yl]acetic Acid] | 3 nM
6 | Cc1nc(C)c([C@H](OC(C)(C)C)C(=O)O)c(N2CCC(C)(C)CC2)c1-c1ccc2c(c1)CCN(c1cc(N3CCOCC3)cc(F)n1)C2 [Example 87, (S)-2-(tert-Butoxy)-2-(4-(4,4-dimethylpiperidin-1-yl)-5-(2-(6-fluoro-4-morpholinopyridin-2-yl)-1,2,3,4-tetrahydroisoquinolin-6-yl)-2,6-dimethylpyridin-3-yl)acetic Acid] | 5 nM
7 | COc1cccc(-c2cc(N3CCc4cc(-c5c(C)nc(C)c([C@H](OC(C)(C)C)C(=O)O)c5N5CCC(C)(C)CC5)ccc4C3)ncn2)c1 [Example 79, (S)-2-(tert-Butoxy)-2-(4-(4,4-dimethylpiperidin-1-yl)-5-(2-(6-(3-methoxyphenyl)pyrimidin-4-yl)-1,2,3,4-tetrahydroisoquinolin-6-yl)-2,6-dimethylpyridin-3-yl)acetic Acid] | 11 nM
8 | Cc1nc(C)c([C@H](OC(C)(C)C)C(=O)O)c(N2CCC(C)(C)CC2)c1-c1ccc2c(c1)CCN(c1ncnc(N3CCC(O)CC3)n1)C2 [Example 61, (S)-2-(tert-Butoxy)-2-(4-(4,4-dimethylpiperidin-1-yl)-5-(2-(4-(4-hydroxypiperidin-1-yl)-1,3,5-triazin-2-yl)-1,2,3,4-tetrahydroisoquinolin-6-yl)-2,6-dimethylpyridin-3-yl)acetic Acid] | 2 nM
9 | Cc1nc(C)c([C@H](OC(C)(C)C)C(=O)O)c(N2CCC(C)(C)CC2)c1-c1ccc2c(c1)CCN(c1cc(N3CCN(C)CC3)ncn1)C2 [Example 129, (S)-2-(tert-Butoxy)-2-(4-(4,4-dimethylpiperidin-1-yl)-2,6-dimethyl-5-(2-(6-(4-methylpiperazin-1-yl)pyrimidin-4-yl)-1,2,3,4-tetrahydroisoquinolin-6-yl)pyridin-3-yl)acetic Acid] | 12 nM
10 | Cc1nc(C)c([C@H](OC(C)(C)C)C(=O)O)c(N2CCC(C)(C)CC2)c1-c1ccc2c(c1)CCN(c1nccc(N3CCN(C)CC3)n1)C2 [Example 40, (2S)-2-(tert-Butoxy)-2-[4-(4,4-dimethylpiperidin-1-yl)-2,6-dimethyl-5-{2-[4-(4-methylpiperazin-1-yl)pyrimidin-2-yl]-1,2,3,4-tetrahydroisoquinolin-6-yl}pyridin-3-yl]acetic Acid] | 4 nM
11 | Cc1nc(C)c([C@H](OC(C)(C)C)C(=O)O)c(N2CCC(C)(C)CC2)c1-c1ccc2c(c1)CCN(c1nccc(O)n1)C2 [Example 80, (S)-2-(tert-Butoxy)-2-(4-(4,4-dimethylpiperidin-1-yl)-5-(2-(4-hydroxypyrimidin-2-yl)-1,2,3,4-tetrahydroisoquinolin-6-yl)-2,6-dimethylpyridin-3-yl)acetic Acid] | 380 nM
12 | Cc1ncc(-c2ccc3c(c2)CCN(c2nccc(N4CCOCC4)n2)C3)c(N2CCC(C)(C)CC2)c1[C@H](OC(C)(C)C)C(=O)O [Example 26, (2S)-2-(tert-Butoxy)-2-[4-(4,4-dimethylpiperidin-1-yl)-2-methyl-5-{2-[4-(morpholin-4-yl)pyrimidin-2-yl]-1,2,3,4-tetrahydroisoquinolin-6-yl}pyridin-3-yl]acetic Acid] | 0.8 nM
13 | Cc1nc(C)c([C@H](OC(C)(C)C)C(=O)O)c(N2CCC(C)(C)CC2)c1-c1ccc2c(c1)CCN(c1nccc(N3CCN(CCO)CC3)n1)C2 [Example 69, (S)-2-(tert-Butoxy)-2-(4-(4,4-dimethylpiperidin-1-yl)-5-(2-(4-(4-(2-hydroxyethyl)piperazin-1-yl)pyrimidin-2-yl)-1,2,3,4-tetrahydroisoquinolin-6-yl)-2,6-dimethylpyridin-3-yl)acetic Acid] | 18 nM
14 | Cc1cccc(Cl)c1CN1CCc2cc(-c3c(CNCCCCCCc4ccccc4)nc(C)c([C@H](OC(C)(C)C)C(=O)O)c3N3CCC(C)(C)CC3)ccc2C1 [Example 157, (S)-2-(tert-Butoxy)-2-(5-(2-(2-chloro-6-methylbenzyl)-1,2,3,4-tetrahydroisoquinolin-6-yl)-4-(4,4-dimethylpiperidin-1-yl)-2-methyl-6-(((6-phenylhexyl)amino)methyl)pyridin-3-yl)acetic Acid] | 340 nM
